# Source: PubChem BioAssay (NCI)
#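 Values below derive from 48-hour exposures of cells grown in 96-well plates, with endpoints linearly interpolated between the two concentrations bracketing the appropriate inhibition level. At the GI50, growth is halved. TGI marks complete inhibition of growth.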
# Tests used:
# Experiment in all cases: NCI-60 cell line screen, 48 h
# PC-3 prostate = system: PC-3 prostate
# OVCAR-3 ovarian = system: OVCAR-3 ovarian
# HCC-2998 colon = system: HCC-2998 colon
# UO-31 renal = system: UO-31 renal
# CCRF-CEM leukemia = system: CCRF-CEM leukemia
# TK-10 renal = system: TK-10 renal
# A549 NSCLC = system: A549 NSCLC
# HCT-15 colon = system: HCT-15 colon
# COLO 205 colon = system: COLO 205 colon
# MCF7 breast = system: MCF7 breast
# SF-268 CNS = system: SF-268 CNS
# SNB-19 CNS = system: SNB-19 CNS
# SF-295 CNS = system: SF-295 CNS
# SK-OV-3 ovarian = system: SK-OV-3 ovarian
# MDA-MB-231 breast = system: MDA-MB-231 breast
# HL-60(TB) leukemia = system: HL-60(TB) leukemia
# NCI-H522 lung = system: NCI-H522 lung
# DU-145 prostate = system: DU-145 prostate
# M14 melanoma = system: M14 melanoma
# SN12C renal = system: SN12C renal
# U251 CNS = system: U251 CNS
# SK-MEL-28 melanoma = system: SK-MEL-28 melanoma
# MALME-3M melanoma = system: MALME-3M melanoma
# UACC-257 melanoma = system: UACC-257 melanoma
# NCI/ADR-RES ovarian = system: NCI/ADR-RES ovarian
# NCI-H226 lung = system: NCI-H226 lung
# SF-539 CNS = system: SF-539 CNS
# MOLT-4 leukemia = system: MOLT-4 leukemia
# K-562 leukemia = system: K-562 leukemia
# T-47D breast = system: T-47D breast
# HS 578T breast = system: HS 578T breast
# NCI-H460 lung = system: NCI-H460 lung
# RXF 393 renal = system: RXF 393 renal
# SK-MEL-5 melanoma = system: SK-MEL-5 melanoma
# ACHN renal = system: ACHN renal
# EKVX NSCLC = system: EKVX NSCLC
# UACC-62 melanoma = system: UACC-62 melanoma
# 786-0 renal = system: 786-0 renal
# SK-MEL-2 melanoma = system: SK-MEL-2 melanoma
# HT29 colon = system: HT29 colon
# NCI-H23 lung = system: NCI-H23 lung
# OVCAR-8 ovarian = system: OVCAR-8 ovarian
# IGROV1 ovarian = system: IGROV1 ovarian
# KM12 colon = system: KM12 colon
# RPMI-8226 leukemia = system: RPMI-8226 leukemia
# SW-620 colon = system: SW-620 colon
# HCT-116 colon = system: HCT-116 colon
# BT-549 breast = system: BT-549 breast
# SNB-75 CNS = system: SNB-75 CNS
# SR leukemia = system: SR leukemia
# LOX IMVI melanoma = system: LOX IMVI melanoma
# CAKI-1 renal = system: CAKI-1 renal
# OVCAR-5 ovarian = system: OVCAR-5 ovarian
# A498 renal = system: A498 renal
# OVCAR-4 ovarian = system: OVCAR-4 ovarian
# HOP-62 NSCLC = system: HOP-62 NSCLC
# HOP-92 NSCLC = system: HOP-92 NSCLC
smiles,measurement,setting,value
Nc1nc2cc(O)ccc2n2cc3c(F)cccc3c12,GI50,PC-3 prostate,3.67 µM
same,TGI,PC-3 prostate,> 100 µM
same,GI50,OVCAR-3 ovarian,6.21 µM
same,TGI,OVCAR-3 ovarian,> 100 µM
same,GI50,HCC-2998 colon,> 20.4 µM
same,TGI,HCC-2998 colon,> 100 µM
same,GI50,UO-31 renal,0.917 µM
same,TGI,UO-31 renal,> 79.8 µM
same,GI50,CCRF-CEM leukemia,2.28 µM
same,TGI,CCRF-CEM leukemia,> 100 µM
same,GI50,TK-10 renal,> 20.9 µM
same,TGI,TK-10 renal,> 100 µM
same,GI50,A549 NSCLC,1.27 µM
same,TGI,A549 NSCLC,> 100 µM
same,GI50,HCT-15 colon,0.62 µM
same,TGI,HCT-15 colon,> 100 µM
same,GI50,COLO 205 colon,5.86 µM
same,TGI,COLO 205 colon,> 100 µM
same,GI50,MCF7 breast,1.26 µM
same,TGI,MCF7 breast,> 100 µM
same,GI50,SF-268 CNS,1.98 µM
same,TGI,SF-268 CNS,> 100 µM
same,GI50,SNB-19 CNS,2.31 µM
same,TGI,SNB-19 CNS,> 100 µM
same,GI50,SF-295 CNS,2.46 µM
same,TGI,SF-295 CNS,> 100 µM
same,GI50,SK-OV-3 ovarian,2.37 µM
same,TGI,SK-OV-3 ovarian,> 100 µM
same,GI50,MDA-MB-231 breast,4.74 µM
same,TGI,MDA-MB-231 breast,> 100 µM
same,GI50,HL-60(TB) leukemia,1.23 µM
same,TGI,HL-60(TB) leukemia,> 100 µM
same,GI50,NCI-H522 lung,1.22 µM
same,TGI,NCI-H522 lung,> 100 µM
same,GI50,DU-145 prostate,6.38 µM
same,TGI,DU-145 prostate,> 100 µM
same,GI50,M14 melanoma,1.24 µM
same,TGI,M14 melanoma,> 100 µM
same,GI50,SN12C renal,2.22 µM
same,TGI,SN12C renal,> 100 µM
same,GI50,U251 CNS,2.64 µM
same,TGI,U251 CNS,> 100 µM
same,GI50,SK-MEL-28 melanoma,4.86 µM
same,TGI,SK-MEL-28 melanoma,> 100 µM
same,GI50,MALME-3M melanoma,3.78 µM
same,TGI,MALME-3M melanoma,> 100 µM
same,GI50,UACC-257 melanoma,4.37 µM
same,TGI,UACC-257 melanoma,> 100 µM
same,GI50,NCI/ADR-RES ovarian,0.964 µM
same,TGI,NCI/ADR-RES ovarian,> 100 µM
same,GI50,NCI-H226 lung,2.97 µM
same,TGI,NCI-H226 lung,> 100 µM
same,GI50,SF-539 CNS,1.31 µM
same,TGI,SF-539 CNS,> 100 µM
same,GI50,MOLT-4 leukemia,1.51 µM
same,TGI,MOLT-4 leukemia,> 100 µM
same,GI50,K-562 leukemia,0.447 µM
same,TGI,K-562 leukemia,> 100 µM
same,GI50,T-47D breast,5.89 µM
same,TGI,T-47D breast,> 100 µM
same,GI50,HS 578T breast,3.68 µM
same,TGI,HS 578T breast,> 100 µM
same,GI50,NCI-H460 lung,0.402 µM
same,TGI,NCI-H460 lung,> 100 µM
same,GI50,RXF 393 renal,1.75 µM
same,TGI,RXF 393 renal,26.8 µM
same,GI50,SK-MEL-5 melanoma,0.334 µM
same,TGI,SK-MEL-5 melanoma,> 100 µM
same,GI50,ACHN renal,1.85 µM
same,TGI,ACHN renal,> 100 µM
same,GI50,EKVX NSCLC,3.38 µM
same,TGI,EKVX NSCLC,> 100 µM
same,GI50,UACC-62 melanoma,1.23 µM
same,TGI,UACC-62 melanoma,> 100 µM
same,GI50,786-0 renal,3.56 µM
same,TGI,786-0 renal,> 100 µM
same,GI50,SK-MEL-2 melanoma,3.76 µM
same,TGI,SK-MEL-2 melanoma,> 100 µM
same,GI50,HT29 colon,4.46 µM
same,TGI,HT29 colon,> 100 µM
same,GI50,NCI-H23 lung,3.91 µM
same,TGI,NCI-H23 lung,> 100 µM
same,GI50,OVCAR-8 ovarian,3.47 µM
same,TGI,OVCAR-8 ovarian,> 100 µM
same,GI50,IGROV1 ovarian,1.67 µM
same,TGI,IGROV1 ovarian,> 100 µM
same,GI50,KM12 colon,0.654 µM
same,TGI,KM12 colon,> 100 µM
same,GI50,RPMI-8226 leukemia,3.37 µM
same,TGI,RPMI-8226 leukemia,> 100 µM
same,GI50,SW-620 colon,0.493 µM
same,TGI,SW-620 colon,> 100 µM
same,GI50,HCT-116 colon,0.724 µM
same,TGI,HCT-116 colon,> 100 µM
same,GI50,BT-549 breast,6.92 µM
same,TGI,BT-549 breast,> 100 µM
same,GI50,SNB-75 CNS,1.44 µM
same,TGI,SNB-75 CNS,7.34 µM
same,GI50,SR leukemia,0.462 µM
same,TGI,SR leukemia,32.8 µM
same,GI50,LOX IMVI melanoma,1.02 µM
same,TGI,LOX IMVI melanoma,> 100 µM
same,GI50,CAKI-1 renal,0.733 µM
same,TGI,CAKI-1 renal,> 93.1 µM
same,GI50,OVCAR-5 ovarian,9.85 µM
same,TGI,OVCAR-5 ovarian,> 100 µM
same,GI50,A498 renal,10.1 µM
same,TGI,A498 renal,> 100 µM
same,GI50,OVCAR-4 ovarian,6.81 µM
same,TGI,OVCAR-4 ovarian,> 100 µM
same,GI50,HOP-62 NSCLC,2.14 µM
same,TGI,HOP-62 NSCLC,> 100 µM
same,GI50,HOP-92 NSCLC,2.43 µM
same,TGI,HOP-92 NSCLC,> 85.6 µM
